What is called logP is the decadic logarithm of the partition coefficient of the neutral form, usually between octanol and water. Read a high logP as a more lipophilic compound. The logD is the decadic logarithm of the distribution of all forms, ionised or not, between an organic phase and buffer at a given pH. Read a high logD as a more lipophilic compound.

The first data set is described as follows: method code SF, from DOI: 10.1021/js960111p, PMID: 9002468.
Details: not given
For `COc1ccc2[nH]ccc2c1`, the logP was 2.08. Same read-out and setting: the figure for `Cc1ccc2[nH]c(C)cc2c1` is 3.02; for `Oc1ccc2[nH]ccc2c1` it is 1.29; for `Cc1ccc2[nH]ccc2c1` it is 2.67.

Compound `Clc1ccc2[nH]ccc2c1` returned a logP of 2.93. With `Cn1ccc2ccccc21`, the logP was determined as 2.55. `c1ccc2c3c([nH]c2c1)CCCC3` came in with a logP of 3.

The same data set, now with this note: pH 12.0.
Regarding `Cc1nccc2c3ccccc3n(C)c12`, the logD was 3.01. Consider `CC1NCCc2c1[nH]c1ccc([N+](=O)[O-])cc21` (stereo not drawn), for which the pH-dependent lipophilicity (logD) worked out at 2.07. `COc1ccc2[nH]c3c(c2c1)CCNC3C` (stereo not drawn): the pH-dependent lipophilicity (logD) was found to be 1.15. In turn, `CC1NCCc2c1[nH]c1ccc(Cl)cc21` (stereo not drawn) returned a logD of 2.3. In turn, `Cc1nccc2c1[nH]c1ccccc12` displayed a logD of 2.89. Take `Cn1c2ccccc2c2ccccc21`: the logD was found to be 3.99. As for `NCCc1c[nH]c2ccccc12`, the logD was found to be 1.35.

`CC1NCCc2c1[nH]c1ccccc21` (stereo not drawn) displayed a logD of 2.06.

Take `c1ccc2c(c1)[nH]c1cnccc12`: the logD is 2.65. On the same count and under the same terms, the figure for `c1ccc2c3c([nH]c2c1)CNCC3` is 1.98; for `COc1ccc2c3c([nH]c2c1)C(C)NCC3` (stereo not drawn) it is 1.37.
